Source: patent US11136409B2, “Compositions and methods for identification, assessment, prevention, and treatment of AML using USP10 biomarkers and modulators” (Dana-Farber Cancer Institute, Inc., priority 2016, dated 2021)

Columns and labels:
[1] = target: T1, human USP10 (residues 376-798) (Homo sapiens, UniProt Q14694); assay: In vitro USP10 activity assay (Ubiquitin-AMC); assay type: biochemical; conditions: ubiquitin-AMC as substrate; purified enzyme; read-out: USP10 biochemical IC50
T1 construct: A construct of human USP10 covering residues 376-798 in the pET28a vector; His-tag (cleaved yes); made in house; host or cells: E. coli BL21 (DE3)
Description: Protein expression and purification. A construct of human USP10 covering residues 376-798 in the pET28a vector was over-expressed in E. coli BL21 (DE3) in TB medium in the presence of […] of kanamycin. Cells were grown at 37° C. to an OD of 0.8, cooled to 17° C., induced with 500 μM isopropyl-1-thio-D-galactopyranoside, incubated overnight at 17° C., collected by centrifugation, and stored at −80° C. Cell pellets were sonicated in buffer A (50 mM HEPES (pH 7.5), 300 mM NaCl, 10% glycerol, 10 mM Imidazole, and 3 mM BME) and the resulting lysate was centrifuged at 30,000×g for 30 min. Ni-NTA beads (Qiagen) were mixed with lysate supernatant for 30 min and washed with buffer A. Beads were transferred to an FPLC-compatible column and the bound protein was washed with 15% buffer B (50 mM HEPES (pH 7.5), 300 mM NaCl, 10% glycerol, 300 mM Imidazole, and 3 mM BME) and eluted with 100% buffer B. Thrombin was added to the eluted protein and incubated at 4° C. overnight. The sample was then passed through a HiPrep 26/10 desalting column (GE Healthcare) pre-equilibrated with buffer A without imidazole, and the eluted protein was subjected to a second Ni-NTA step to remove His-tag and Thrombin. The eluent was concentrated and passed through a Superdex® 200 10/300GL column (GE Healthcare) in a buffer containing 20 mM HEPES (pH 7.5), 150 mM NaCl, and 1 mM DTT. Fractions were pooled, concentrated to 20 mg/ml, and frozen at −80° C.
In vitro USP10 activity assay. Recombinant USP10, residues 376-798, was tested for its activity in a Ubiquitin-AMC assay in presence or absence of inhibitors. For this assay, 10 nM USP10 were pre-incubated with different concentrations of inhibitors or DMSO as a control in 50 mM HEPES pH7.6, 0.5 mM EDTA, 11 uM ovalbumin, and 5 mM DTT. The reaction was incubated for 6 hours at room temperature prior to the addition of 2 uM Ubiquitin-AMC (Boston Biochem) substrate. The initial rate of the reaction was measured by collecting fluorescence data at one minute intervals over 30-minute period using a CLARIOstar® fluorescence plate reader at excitation and emission wavelength of 345 and 445 nm, respectively. The calculated initial rate values were plotted against inhibitor concentrations to determine IC50 values.

USP7 = USP7 (Homo sapiens, UniProt Q93009); assay: USP7 IC50 of HBX19818 analogs (Table 9); assay type: biochemical; conditions: read-out: USP7 IC50 +/− SEM
Ba/F3-FLT3-ITD cells = assay: Immunoblot of FLT3 / Beclin-1 in Ba/F3-FLT3-ITD cells; assay type: cell-based, murine; conditions: immunoblot; Ba/F3-FLT3-ITD cells
From the text: The following antibodies were purchased from Cell Signaling Technology (Danvers, Mass.): total AKT (rabbit, #9272) and total p44/42 MAPK (Erk1/2) (3A7) (mouse, #9107) were used at 1:1000 dilution. Anti-GAPDH (D16H-11) XP (R) (rabbit mAb, #5174) was used at 1:1000 dilution. Beclin-1 (rabbit, #3738) was used at 1:1000. USP10 (D7A5) (rabbit, #8501) was used at 1:1000 dilution. P53 (rabbit, #9282) was used at 1:1000 dilution. β-tubulin (rabbit, #2146s) was used 1:1000.
FLT3/Flk-2 (C-20) (sc-479) and Ub (P4D1) (mouse, sc-8017) were purchased from Santa Cruz Biotechnology, Inc. (Dallas, Tex.) and used at 1:1000 dilution for immunoblotting. Anti-pTyr (mouse, clone 4G10) was purchased from Upstate Biotechnology (Lake Placid, N.Y.) and was used at 1:1000 dilution. Anti-HAUSP/USP7 antibody (rabbit, ab4080) and anti-ubiquitin antibody (rabbit, ab7780) were purchased from Abcam (Cambridge, Mass.) and used at 1:1000 dilution.
Protein lysate preparation, immunoblotting, and immunoprecipitation were carried out as previously described in Weisberg et al. (2002) Cancer Cell 1:433-443.

Sequence of USP7 (Q93009 whole entry): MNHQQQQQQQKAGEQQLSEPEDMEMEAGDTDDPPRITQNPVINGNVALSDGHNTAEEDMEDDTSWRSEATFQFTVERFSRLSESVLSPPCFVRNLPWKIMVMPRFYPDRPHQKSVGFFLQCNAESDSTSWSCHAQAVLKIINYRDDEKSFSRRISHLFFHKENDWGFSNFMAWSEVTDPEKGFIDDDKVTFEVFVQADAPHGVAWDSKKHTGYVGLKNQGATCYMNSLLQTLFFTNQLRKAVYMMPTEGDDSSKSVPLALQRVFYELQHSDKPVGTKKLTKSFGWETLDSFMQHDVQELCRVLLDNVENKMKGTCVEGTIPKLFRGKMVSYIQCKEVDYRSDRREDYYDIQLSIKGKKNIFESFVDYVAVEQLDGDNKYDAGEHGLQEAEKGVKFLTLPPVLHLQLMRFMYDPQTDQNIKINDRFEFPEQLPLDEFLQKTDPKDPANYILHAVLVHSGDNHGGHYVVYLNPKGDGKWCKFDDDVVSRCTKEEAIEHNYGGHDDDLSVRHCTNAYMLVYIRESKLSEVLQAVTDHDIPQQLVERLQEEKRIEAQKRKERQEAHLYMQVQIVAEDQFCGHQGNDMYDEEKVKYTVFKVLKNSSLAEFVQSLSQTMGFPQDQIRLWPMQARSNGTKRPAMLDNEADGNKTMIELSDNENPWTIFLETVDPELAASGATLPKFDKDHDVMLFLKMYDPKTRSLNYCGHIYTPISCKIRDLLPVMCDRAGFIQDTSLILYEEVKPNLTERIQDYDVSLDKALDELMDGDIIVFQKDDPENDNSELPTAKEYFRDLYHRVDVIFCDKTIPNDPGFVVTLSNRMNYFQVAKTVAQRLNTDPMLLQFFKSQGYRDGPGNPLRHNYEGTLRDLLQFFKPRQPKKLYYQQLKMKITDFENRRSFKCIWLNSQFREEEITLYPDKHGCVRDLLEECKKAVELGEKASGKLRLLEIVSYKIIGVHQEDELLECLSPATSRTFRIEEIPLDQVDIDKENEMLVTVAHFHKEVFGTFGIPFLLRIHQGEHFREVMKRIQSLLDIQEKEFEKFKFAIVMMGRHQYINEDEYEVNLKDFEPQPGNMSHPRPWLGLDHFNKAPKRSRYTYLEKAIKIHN
T1 sequence (Q14694 376-798): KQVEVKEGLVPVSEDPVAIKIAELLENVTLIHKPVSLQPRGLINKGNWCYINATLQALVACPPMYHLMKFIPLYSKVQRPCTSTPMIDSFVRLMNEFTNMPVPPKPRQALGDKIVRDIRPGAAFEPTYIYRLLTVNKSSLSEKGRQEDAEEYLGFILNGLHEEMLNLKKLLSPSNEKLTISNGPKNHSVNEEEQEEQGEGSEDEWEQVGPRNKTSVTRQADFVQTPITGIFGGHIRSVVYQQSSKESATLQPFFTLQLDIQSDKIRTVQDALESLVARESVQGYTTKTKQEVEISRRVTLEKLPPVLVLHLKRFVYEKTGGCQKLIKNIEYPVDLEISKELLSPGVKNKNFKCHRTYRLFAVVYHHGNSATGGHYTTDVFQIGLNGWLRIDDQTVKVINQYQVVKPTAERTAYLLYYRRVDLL

SMILES: CCN(CCCNC(=O)c1ccc2nc3c(c(Cl)c2c1)CCCC3)c1ccccc1 [C598-0468]
- IC50 [1]: > 100 µM
- IC50 (USP7): > 100 µM
- FLT3 protein levels (Ba/F3-FLT3-ITD cells): no effect on FLT3 levels

SMILES: CCN(CC)S(=O)(=O)c1ccc(NC(=O)c2ccc3nc4c(c(Cl)c3c2)CCCC4)cc1 [C598-0646]
- IC50 (USP7): > 100 µM

SMILES: O=C(NCCc1ccc(Cl)cc1)c1ccc2nc3c(c(Cl)c2c1)CCCC3 [C598-0515]
- IC50 (USP7): > 100 µM
